Source: EPA's ToxValDB 9.5 (doi:10.2903/j.efsa.2015.4279)

How the values were obtained:
Apis mellifera = settings: acute; oral; unspecified; mortality
Daphnia magna = settings: chronic/long-term; duration: 21 days; reproduction
Colinus virginianus = settings: chronic
Anas platyrhynchos = settings: acute; oral; unspecified; mortality
Folsomia candida = settings: chronic/long-term
Bibionidae = settings: chronic/long-term; duration: 28 days; development
Oryctolagus sp. = settings: reproduction developmental; hematological
Canidae = settings: oral, Dog Other, hematological
Oncorhynchus mykiss = settings: chronic/long-term; duration: 95 days; growth
Typhlodromus pyri = assay: LR50; higher = less toxic; settings: not reported; mortality

`O=C(Nc1ccc(F)cc1)c1cccc(Oc2cccc(C(F)(F)F)c2)n1` [Picolinafen] was tested, and the LC50 (Tagia sp.; acute, duration: 14 days, mortality) was greater than 500 mg/kg, the NOEC (Tagia sp.; chronic/long-term, duration: 8 weeks) was 1.68 mg/kg and the LD50 (Apis mellifera) was greater than 200 µg/piece. For the same compound, the NOEC (Daphnia magna) was 0.007 mg/L, the NOEL (Colinus virginianus) was 59.5 mg/kg-day and the LD50 (Rattus norvegicus; acute, mortality) was greater than 5000 mg/kg-day. For the same compound, the NOAEL (Rattus norvegicus; chronic) was 4 mg/kg-day, the LD50 (Anas platyrhynchos) was greater than 2250 mg/kg-day and the NOEC (Folsomia candida) was 250 mg/kg. The NOEC (Bibionidae) was 0.18 mg/L, the NOAEL (Oryctolagus sp.) was 5 mg/kg-day and the NOAEL (Canidae; chronic, duration: 1 years) was 1.4 mg/kg-day. It also gave an NOAEL (Canidae; subchronic, duration: 90 days) of 5.2 mg/kg-day, an NOEC (Oncorhynchus mykiss) of 0.0064 mg/L and an LR50 (Typhlodromus pyri) greater than 100 g/ha.
